Entries after “also recorded” stand apart in the source; their conditions may differ.
Tested on: DM/HC pig model
Assay: Diabetic/hypercholesterolemic (DM/HC) pig model: brain histology/IHC, weight and behaviour
Assay type: in vivo
Protocol: A diabetic/diabetic hypercholestrolemic pig model (DM/HC) was developed that mimics human-like atherosclerosis. Farm pigs weighing 25-30 kg and aged ˜4 months were made diabetic with a single intravenous injection of 125 mg/kg of streptozotocin (Sicor Pharmaceuticals, Irvine, Calif.). After stabilization for 1-2 weeks, the animals with elevated levels of plasma glucose (>150 mg/dl) were fed with atherogenic (high-fat) diet as shown in Table 1 (Animal Specialties, Quakertown, Pa.) to achieve a cholesterol level of approximately […] Maintenance of the cholesterol level was determined by method as shown in Table 2.
On days 1-2, animals were fed normal chow, followed by on days 3-14 animals were fed a diet of 0.5% cholesterol, 2% lard and on day 14, cholesterol levels were measured and the diet adjusted accordingly to increase to 2% cholesterol, 10% lard if cholesterol is <300 mg/dl. Following induction of DM/HC, cholesterol was measured until cholesterol levels are stable between 300 and 800 mg/dl, and following cholesterol stabilization, cholesterol was measured monthly. If cholesterol levels were unstable following initial stabilization phase, the diet of the animal was returned to the initial two-week measurement schedule. Monthly cholesterol levels were determined, including levels of total cholesterol, LDL, HDL, VLDL and triglycerides.
At one month after stabilization of cholesterol at 250-800 mg/d1, the animals were randomized into two experimental groups, DM/HC (hyperglycemia and hypercholesterolemia) group with no treatment and treatment group (10 mg/kg/day of SB-480848, also referred to as 1-(N-(2-(diethylamino)ethyl)-N-(4-(4-trifluoromethylphenyl)benzyl)-aminocarbonylmethyl)-2-(4-fluorobenzyl)thio-5,6-trimethylenepyrimidin-4-one). The animals were sacrificed at 6-month after the randomization. The animal protocol has been approved by the Institutional Animal Care and Use Committee of University of Pennsylvania.
Two diabetic/hypercholesterolemic groups were evaluated: 1. DM/HC group and 2. DM/HC animals receiving Lp-PLA2 inhibitors. The experiments included: the control group (DM/HC group—17 pigs) and the experimental group (DM/HC animals receiving LP-PLA2 inhibitors—20 pigs). In addition blood cholesterol levels were maintained between 300 and 800 mg/dl in experimental animals, this range having been determined to provide a better test model. Blood cholesterol levels were monitored in all animals on a bimonthly basis, as shown in Table 4 and adjustments were made to the fat content of the feed accordingly, as shown in Table 2. The cholesterol and lard percent were in the range of 0.5-2% and 10-25%, respectively, and all animals received feed that contained cholesterol and lard concentration within that range. Blood samples were obtained at baseline, 1 month, 3 months, and 6 months. Less than 1 ml/kg of blood were obtained each time. At the bimonthly blood cholesterol levels tests, levels of total cholesterol, LDL, HDL, VLDL and triglycerides, blood glucose, Lp-PLA2 and […] (PBMCs) were tested (see Table 4).
The animal number, selected to justify the minimum requirement for statistical validity were 2 groups of animals per experiment as follows: 1. Control group (n=17); Diabetic and hyperlipidemic; 2.
Domestic farm pigs, Yorkshire boars, ranging in weight between 25-35 kg were purchased from a local farm and placed in indoor housing under the care of a veterinarian. They were castrated 3-5 days in advance of the study start date. Test pigs were made diabetic by infusing one dose of streptozocin (125 mg/kg) IV in a period of 30 min. […] To avoid the possible onset of initial hypoglycemia, 20 g of glucose powder was added to the feed for the […]. The blood glucose was measured using a glucometer every day before feeding for the first 14 days and then once a week.
Test animals were housed separately from control animals to avoid inter-animal transfer of drug due to colcophagia. […]

[1] = DM/HC pigs, 10 mg/kg/day, brain IHC for pig immunoglobulin
[2] = DM/HC pigs, 10 mg/kg/day, observed during study period vs control non-treated animals

## CCN(CC)CCN(Cc1ccc(-c2ccc(C(F)(F)F)cc2)cc1)C(=O)Cn1c(SCc2ccc(F)cc2)nc(=O)c2c1CCC2 [Lp-PLA2 inhibitor, 1-(N-(2-(diethylamino)ethyl)-N-(4-(4-trifluoromethylphenyl)benzyl)-aminocarbonylmethyl)-2-(4-fluorobenzyl)thio-5,6-trimethylenepyrimidin-4-one]
DM/HC pigs treated with Lp-PLA2 inhibitor, GFAP as marker
  activation of glial cells: less activation of glial cells
DM/HC pigs, 10 mg/kg/day, Abeta-42 immunostaining of arterioles
  Abeta42 accumulation in vascular SMCs (cerebrovascular amyloidosis): little or no arterial Abeta-42 immunostaining; also recorded: prevented Abeta42 accumulation in vascular SMCs
DM/HC pigs, 10 mg/kg/day, brain Abeta-42 immunostaining, n=6
  Abeta-42 accumulation in neurons (immunoreactivity): immunonegative neurons for Abeta-42; also recorded: no neuronal Abeta-42 immunoreactivity
DM/HC pigs, 10 mg/kg/day, brain IHC
  dendrite collapse: no dendrite collapse
[1]
  Ig binding to neurons: no Ig binding to neurons
  Ig leakage from blood vessels: Ig is confined to the lumen of the blood vessels; also recorded: no Ig leakage from blood vessels
DM/HC pigs, 10 mg/kg/day, brain IHC for pig immunoglobulin, n=6
  DM/HC-induced BBB leakage: prevents BBB leakage; also recorded: negligible BBB leakage
DM/HC pigs, 10 mg/kg/day, compared with non-treated animals
  sick neurons: rarely observed
[2]
  activity in the cage: increased activity in the cage
  response to feeding and handling: respond more alertly to feeding and handling
  responsiveness to external stimuli: more responsive to external stimuli
